From article PMC11435058, “Synthesis of New Thiazole-Privileged Chalcones as Tubulin Polymerization Inhibitors with Potential Anticancer Activities” (Pharmaceuticals, 2024)

Key:
IGROV1 = assay: NCI-60 anticancer screen (SRB; single dose and five doses); conditions: Homo sapiens
OVCAR-4 = assay: as above; conditions: Homo sapiens
COLO 205 = assay: as above; conditions: Homo sapiens
EKVX = assay: as above; conditions: Homo sapiens
BT-549 = assay: as above; conditions: Homo sapiens
UACC-62 = assay: as above; conditions: Homo sapiens
HCC-2998 = assay: as above
TK-10 = assay: as above; conditions: Homo sapiens
HS 578T = assay: as above; conditions: Homo sapiens
SK-OV-3 = assay: as above; conditions: Homo sapiens
786-0 = assay: as above; conditions: Homo sapiens
tubulin = assay: In vitro tubulin polymerization inhibition assay; format: biochemical; conditions: 4 mg/mL tubulin, 37°C, absorbance at 340 nm
Method: 4.2.2. In Vitro Tubulin Polymerization Inhibition Assay.
2p, and the reference drug CD -4) with the microtubule system. Specifically, the in vitro inhibition of tubulin polymerization was evaluated for these compounds. The standard tubulin polymerization reaction was carried out, containing 100 μL of 4 mg/mL tubulin in a buffer solution of 80 mM PIPES (pH 6.9), 0.5 mM EGTA, 2 mM MgCl2, and 1 mM GTP. Polymerization was initiated by incubating the reaction […]
Under these conditions, polymerization typically reaches a maximum absorbance of […]
growth, and steady state. In this experimental set up, an absorbance of 0.1 at 340 nm corresponds to approximately 1 mg/mL of polymerized tubulin, meaning that around […]
40% of the tubulin is polymerized, allowing for the detection of both enhancers and inhibitors of polymerization. The inhibitory effect of each compound on tubulin polymerization was quantified by determining the IC50 values, which were reported as the mean ± standard deviation from three independent experiments. […]

CAKI-1 = assay: NCI-60 anticancer screen (SRB; single dose and five doses); conditions: Homo sapiens
SNB-75 = assay: as above
T-47D = assay: as above; conditions: Homo sapiens, T47D
UO-31 = assay: as above; conditions: Homo sapiens
DU-145 = assay: as above; conditions: Homo sapiens
HT29 = assay: as above; conditions: Homo sapiens
SK-MEL-28 = assay: as above; conditions: Homo sapiens
OVCAR-5 = assay: as above; conditions: Homo sapiens
Lovo = system: Lovo; design: method as in doi:10.1080/00397911.2021.1884262; conditions: Lovo colorectal cancer cells; cited from earlier work
HT-29 = system: HT-29; design: method as in doi:10.1080/00397911.2021.1884262; conditions: HT-29 colorectal cancer cells; cited from earlier work
HCT-116 = system: HCT-116; design: method as in doi:10.1080/00397911.2021.1884262; conditions: HCT-116 colorectal cancer cells; cited from earlier work

## COc1ccc(/C=C\c2cc(OC)c(OC)c(OC)c2)cc1O [CA-4, Combretastatin-A4, reference compound]
IGROV1; IGROV-1
  GI50: 0.06 µM
IGROV1; IGROV-1, read-out: LC50
  CC50: > 100 µM
IGROV1; IGROV-1, read-out: TGI
  IC (TGI): 63.5 µM
OVCAR-4; OVCAR-4
  GI50: 0.26 µM
OVCAR-4; OVCAR-4, read-out: LC50
  CC50: 20.2 µM
OVCAR-4; OVCAR-4, read-out: TGI
  IC (TGI): 0.16 µM
COLO 205; COLO 205
  GI50: 2.49 µM
COLO 205; COLO 205, read-out: LC50
  CC50: > 100 µM
COLO 205; COLO 205, read-out: TGI
  IC (TGI): 43.2 µM
EKVX
  GI50: 0.36 µM
EKVX; read-out: LC50
  CC50: > 100 µM
EKVX; read-out: TGI
  IC (TGI): 82 µM
BT-549; BT-549
  GI50: 0.01 µM
BT-549; BT-549, read-out: TGI
  IC (TGI): 8.09 µM
UACC-62; UACC-62
  GI50: 0.01 µM
UACC-62; UACC-62, read-out: TGI
  IC (TGI): 80.5 µM
HCC-2998; Homo sapiens, HCC 2998
  GI50: 0.05 µM
HCC-2998; Homo sapiens, HCC 2998, read-out: LC50
  CC50: 26.9 µM
HCC-2998; five-dose, Colon Cancer HCC-2998
  TGI: 1.22 µM
TK-10; TK-10
  GI50: 0.57 µM
TK-10; TK-10, read-out: LC50
  CC50: > 100 µM
TK-10; TK-10, read-out: TGI
  IC (TGI): 11.5 µM
HS 578T
  GI50: 0.15 µM
HS 578T; read-out: LC50
  CC50: > 100 µM
HS 578T; read-out: TGI
  IC (TGI): 0.22 µM
SK-OV-3; SK-OV-3
  GI50: 28.4 µM
SK-OV-3; SK-OV-3, read-out: LC50
  CC50: 89.5 µM
SK-OV-3; SK-OV-3, read-out: TGI
  IC (TGI): 0.36 µM
786-0; 786-0
  GI50: 0.02 µM
786-0; 786-0, read-out: LC50
  CC50: > 100 µM
786-0; 786-0, read-out: TGI
  IC (TGI): > 100 µM
tubulin
  IC50: […]
tubulin; listed as Combretastatin-A4 (CA-4)
  IC50: […]
CAKI-1; CAKI-1
  GI50: 0.04 µM
CAKI-1; CAKI-1, read-out: LC50
  CC50: 97 µM
CAKI-1; CAKI-1, read-out: TGI
  IC (TGI): 8.22 µM
SNB-75; Homo sapiens, SNB-75
  GI50: 0.83 µM
SNB-75; Homo sapiens, SNB-75, read-out: LC50
  CC50: 82.4 µM
SNB-75; five-dose, CNS Cancer SNB-75
  TGI: 24.72 µM
T-47D
  GI50: 48 µM
T-47D; read-out: LC50
  CC50: > 100 µM
T-47D; read-out: TGI
  IC (TGI): 2.04 µM
UO-31; UO-31
  GI50: 0.19 µM
UO-31; UO-31, read-out: TGI
  IC (TGI): 4.16 µM
DU-145; DU-145
  GI50: 0.01 µM
DU-145; DU-145, read-out: LC50
  CC50: > 100 µM
DU-145; DU-145, read-out: TGI
  IC (TGI): 78.9 µM
HT29; HT-29
  GI50: 0.66 µM
HT29; HT-29, read-out: LC50
  CC50: 38.7 µM
HT29; HT-29, read-out: TGI
  IC (TGI): 5.51 µM
SK-MEL-28; SK-MEL-28
  GI50: 3.16 µM
SK-MEL-28; SK-MEL-28, read-out: LC50
  CC50: 90.8 µM
SK-MEL-28; SK-MEL-28, read-out: TGI
  IC (TGI): 82.4 µM
OVCAR-5; OVCAR-5
  GI50: 0.18 µM
OVCAR-5; OVCAR-5, read-out: LC50
  CC50: > 100 µM
OVCAR-5; OVCAR-5, read-out: TGI
  IC (TGI): 83.2 µM

## Cc1nc(-c2ccc(C(F)(F)F)cc2)sc1C(=O)/C=C/c1ccc(C(=O)O)cc1 [V]
Lovo
  IC50: 2.21 µM
HT-29
  IC50: 7.94 µM
HCT-116
  IC50: 3.12 µM
